Values quoted from earlier work as cited in PubChem BioAssay AID1259409 (Chemical Carcinogenesis Research Information System (CCRIS), 2018).

Tested on: rodent chemically induced tumor inhibition, incidence and multiplicity
Assay: CCRIS tumor inhibitor studies
Conditions: Route [Inhibitor]: ORAL

Cc1c(C)c2c(c(C)c1O)CC[C@@](C)(CCC[C@H](C)CCC[C@H](C)CCCC(C)C)O2
tumour outcome (control, treated, inhibition, significance) (Carcinogen: 1,2-DIMETHYLHYDRAZINE, 540-73-8, Dose [Inhibitor]: 600 MG/KG OF DIET DAILY STARTING AT AGE 10 WK AND CONTINUING FOR DURATION OF STUDY (STUDY DURATION: 28 WK), Species: MOUSE, Strain/Sex: LACA/MALE, Target Tissue: Type of Lesion: COLON: ADENOMA, CARCINOMA, Dose [Carcinogen]: 10 MG/KG BW 1/WK FOR 28 WK, Promoter: NONE USED): 34/42 (81%), 31/51 (61%), 25%, p<0.25
tumour outcome (control, treated, inhibition, significance) (Carcinogen: 2-AMINO-1-METHYL-6-PHENYL-1H-IMIDAZO[4,5-B]PYRID INE, 105650-23-5, Dose [Inhibitor]: 0, 1% IN THE DIET FOR 52 WK (STUDY DURATION: 52 WK), Species: RAT, Strain/Sex: F344/FEMALE, Target Tissue: Type of Lesion: MAMMARY GLAND: ADENOCARCINOMA FIBROADENOMA, Dose [Carcinogen]: 0.02% IN THE DIET FOR 52 WK, Promoter: NONE USED): 2/20 (10%), 1/20 (5%), 50%, not significant
tumour outcome (control, treated, inhibition, significance) (Carcinogen: 2-AMINO-1-METHYL-6-PHENYL-1H-IMIDAZO[4,5-B]PYRID INE, 105650-23-5, Dose [Inhibitor]: 0, 1% IN THE DIET FOR 52 WK (STUDY DURATION: 52 WK), Species: RAT, Strain/Sex: F344/FEMALE, Target Tissue: Type of Lesion: MAMMARY GLAND: ADENOCARCINOMA, Dose [Carcinogen]: 0.02% IN THE DIET FOR 52 WK, Promoter: NONE USED): 8/20 (40%), 4/20 (20%), 50%, not significant
tumour outcome (control, treated, inhibition, significance) (Carcinogen: 2-AMINO-1-METHYL-6-PHENYLIMIDAZO[4,5-B]PYRIDINE [105650-23-5], Dose [Inhibitor]: 0.5% IN DIET FOR 54 WK (STUDY DURATION: 54 WK), Species: RAT, Strain/Sex: F344/DUCRJ/FEMALE, Target Tissue: Type of Lesion: COLON: ADENOMA OR ADENOCARCINOMA, Dose [Carcinogen]: 0.02% IN DIET FOR 54 WK (STUDY DURATION: 54 WK), Promoter: NONE): 3/20 (15%), 1/20 (5%), 67%, not significant
tumour outcome (control, treated, inhibition, significance) (Carcinogen: 2-AMINO-1-METHYL-6-PHENYLIMIDAZO[4,5-B]PYRIDINE [105650-23-5], Dose [Inhibitor]: 0.5% IN DIET FOR 54 WK (STUDY DURATION: 54 WK), Species: RAT, Strain/Sex: F344/DUCRJ/FEMALE, Target Tissue: Type of Lesion: MAMMARY GLAND: ADENOMA OR ADENOCARCINOMA, Dose [Carcinogen]: 0.02% IN DIET FOR 54 WK (STUDY DURATION: 54 WK), Promoter: NONE): 8/20 (40%), 4/20 (20%), 50%, not significant
tumour outcome (control, treated, inhibition, significance) (Carcinogen: 3,2'-DIMETHYL-4-AMINOBIPHENYL, 13394-86-0, Dose [Inhibitor]: 0, 1% IN BASAL DIET BEGINNING POST CARCINOGEN TREATMENT AND CONTINUING FOR 40 WK (STUDY DURATION: 60 WK), Species: RAT, Strain/Sex: F344/MALE, Target Tissue: Type of Lesion: LARGE INTESTINE: ADENOMA AND ADENOCARCINOMA, Dose [Carcinogen]: 50 MG/KG 1/2 WK FOR 20 WK TO RATS MAINTAINED ON ETHINYL ESTRADIOL CONTAINING DIET (0.75 PPM) FOR 1 WK CYCLED WITH ETHINY, Promoter: ETHINYL ESTRADIOL, 57-63-6): 3/10 (30%), 4/12 (33%), -10%, not significant
tumour outcome (control, treated, inhibition, significance) (Carcinogen: 3,2'-DIMETHYL-4-AMINOBIPHENYL, 13394-86-0, Dose [Inhibitor]: 0, 1% IN BASAL DIET BEGINNING POST CARCINOGEN TREATMENT AND CONTINUING FOR 40 WK (STUDY DURATION: 60 WK), Species: RAT, Strain/Sex: F344/MALE, Target Tissue: Type of Lesion: PREPUTIAL GLAND: ADENOMA AND CARCINOMA, Dose [Carcinogen]: 50 MG/KG 1/2 WK FOR 20 WK TO RATS MAINTAINED ON ETHINYL ESTRADIOL CONTAINING DIET (0.75 PPM) FOR 1 WK CYCLED WITH ETHINY, Promoter: ETHINYL ESTRADIOL, 57-63-6): 5/10 (50%), 6/12 (50%), 0%, not significant
tumour outcome (control, treated, inhibition, significance) (Carcinogen: 3,2'-DIMETHYL-4-AMINOBIPHENYL, 13394-86-0, Dose [Inhibitor]: 0, 1% IN BASAL DIET BEGINNING POST CARCINOGEN TREATMENT AND CONTINUING FOR 40 WK (STUDY DURATION: 60 WK), Species: RAT, Strain/Sex: F344/MALE, Target Tissue: Type of Lesion: SMALL INTESTINE: ADENOMA AND ADENOCARCINOMA, Dose [Carcinogen]: 50 MG/KG 1/2 WK FOR 20 WK TO RATS MAINTAINED ON ETHINYL ESTRADIOL CONTAINING DIET (0.75 PPM) FOR 1 WK CYCLED WITH ETHINY, Promoter: ETHINYL ESTRADIOL, 57-63-6): 2/10 (20%), 1/12 (8%), 60%, not significant
tumour outcome (control, treated, inhibition, significance) (Carcinogen: 3,2'-DIMETHYL-4-AMINOBIPHENYL, 13394-86-0, Dose [Inhibitor]: 0, 1% IN BASAL DIET BEGINNING POST CARCINOGEN TREATMENT AND CONTINUING FOR 40 WK (STUDY DURATION: 60 WK), Species: RAT, Strain/Sex: F344/MALE, Target Tissue: Type of Lesion: SUBCUTIS: TUMOR, Dose [Carcinogen]: 50 MG/KG 1/2 WK FOR 20 WK TO RATS MAINTAINED ON ETHINYL ESTRADIOL CONTAINING DIET (0.75 PPM) FOR 1 WK CYCLED WITH ETHINY, Promoter: ETHINYL ESTRADIOL, 57-63-6): 1/10 (10%), 0/12 (0%), 100%, not significant
tumour outcome (control, treated, inhibition, significance) (Carcinogen: 3,2'-DIMETHYL-4-AMINOBIPHENYL, 13394-86-0, Dose [Inhibitor]: 0, 1% IN BASAL DIET BEGINNING POST CARCINOGEN TREATMENT AND CONTINUING FOR 40 WK (STUDY DURATION: 60 WK), Species: RAT, Strain/Sex: F344/MALE, Target Tissue: Type of Lesion: ZYMBAL GLAND: ADENOMA AND CARCINOMA, Dose [Carcinogen]: 50 MG/KG 1/2 WK FOR 20 WK TO RATS MAINTAINED ON ETHINYL ESTRADIOL CONTAINING DIET (0.75 PPM) FOR 1 WK CYCLED WITH ETHINY, Promoter: ETHINYL ESTRADIOL, 57-63-6): 2/10 (20%), 1/12 (8%), 60%, not significant
